{"source": "patent US20110206693A1", "about": "“LYSINE RIBOSWITCH AND COMPOSITIONS AND USES THEREOF” (priority 2008, published 2011)", "origin": "cited, not measured here", "tested_on": "lysine riboswitch", "conditions": "for binding / recognition by the lysine riboswitch (in words): qualitative, compared with lysine; for lower affinity than lysine for the RNA: binding to the riboswitch RNA, relative to lysine, Sudarsan 2003 and Blount 2007", "data": [{"smiles": "C[N+](C)(C)CCCC[C@H](N)C(=O)[O-]", "note": "[N^6-trimethyl-L-lysine]", "values": [{"measurement": "binding / recognition by the lysine riboswitch (in words)", "value": "precludes efficient recognition"}]}, {"smiles": "N=C(N)NCCCC[C@H](N)C(=O)O", "note": "[homoarginine]", "values": [{"measurement": "binding / recognition by the lysine riboswitch (in words)", "value": "precludes efficient recognition"}]}, {"smiles": "NCCS(=O)(=O)C[C@H](N)C(=O)O", "note": "[AESA, L-3-[(2-aminoethyl)-sulfonyl]-alanine]", "values": [{"measurement": "lower affinity than lysine for the RNA", "value": 7, "unit": "fold"}]}, {"smiles": "NCCC[C@H](N)C(=O)O", "note": "[L-ornithine]", "values": [{"measurement": "binding / recognition by the lysine riboswitch (in words)", "value": "not efficiently bound"}]}, {"smiles": "NCCCCC[C@H](N)C(=O)O", "note": "[L-α-homolysine]", "values": [{"measurement": "binding / recognition by the lysine riboswitch (in words)", "value": "not efficiently bound"}]}, {"smiles": "NCCSC[C@H](N)C(=O)O", "note": "[AEC, S-(2-aminoethyl)-L-cysteine]", "values": [{"measurement": "lower affinity than lysine for the RNA", "value": 30, "unit": "fold"}]}]}
